Numbered stars: 1 amine (or outer) side, 2 acyl side, 3 side chain; on linkers, the order of the positions; unused ones are H or OH. Bridge positions count the residues as written; N and C are the ends. Square brackets hold non-standard residues; d marks the D form. Peptide text beside a SMILES is read from it. * marks the point of attachment. hPhe(3,5-F2-4-CF3) = N[C@@H](CCc1cc(F)c(C(F)(F)F)c(F)c1)C(=O)O; hPhe(3-Cl-4-CF3) = N[C@@H](CCc1ccc(C(F)(F)F)c(Cl)c1)C(=O)O; hPhe(3-F,4-CF3) = N[C@@H](CCc1ccc(C(F)(F)F)c(F)c1)C(=O)O; NMePhe(4-CF3) = CN[C@@H](Cc1ccc(C(F)(F)F)cc1)C(=O)O; NMeAbu(4,4,4-F3) = CN[C@@H](CC(F)(F)F)C(=O)O; NMePhe(4-Cl) = CN[C@@H](Cc1ccc(Cl)cc1)C(=O)O; NMePhe(4-Me) = CN[C@@H](Cc1ccc(C)cc1)C(=O)O; NMePhe(4-F) = CN[C@@H](Cc1ccc(F)cc1)C(=O)O; X79 = O=C([C@H](Cc1ccc(Cl)s1)N[*:1])[*:2]; NMeGly(cPent) = CN[C@H](C(=O)O)C1CCCC1; Phe(3-I) = N[C@@H](Cc1cccc(I)c1)C(=O)O; Pro(4,4-F2) = O=C(O)[C@@H]1CC(F)(F)CN1; NMeCha = CN[C@@H](CC1CCCCC1)C(=O)O; Hyp = O=C(O)[C@@H]1C[C@@H](O)CN1; NEtLeu = CCN[C@@H](CC(C)C)C(=O)O; NMeChg = CN[C@H](C(=O)O)C1CCCCC1; NMeI = CC[C@H](C)[C@H](NC)C(=O)O; NMeD = CN[C@@H](CC(=O)O)C(=O)O; NMeL = CN[C@@H](CC(C)C)C(=O)O; d(β3hA) = C[C@@H](N)CC(=O)O; Morpholide = C1CN(*)CCO1; NMeA = CN[C@@H](C)C(=O)O; NMeAib = CNC(C)(C)C(=O)O; Nle = CCCC[C@H](N)C(=O)O; Piperidide = C1CCN(*)CC1; Pra = C#CC[C@H](N)C(=O)O; Pyrrolidide = C1CCN(*)C1; Ac5c = NC1(C(=O)O)CCCC1; Aze = O=C(O)[C@@H]1CCN1; Sar = CNCC(=O)O

This test relates to Human pancreatic cancer cell line AsPC-1 (G12D mutation Kras). The test can be described thus: AsPC-1 cell growth inhibition (AsPC-1 CGI). The format is cell-based. As to conditions: read-out: AsPC-1 cell growth inhibition, 50% growth inhibitory concentration (IC50 value); 96 hours, CellTiter-Glo, values classified in ranges. On the technique in general: Cellular ATP, detected with luciferase, serves as a proxy for viable cell number.
Description: Test compounds were serially dilated with dimethyl sulfoxide, and 200 nL was then dispensed to a U-bottom 96-well plate using Labcyte Echo. […] The cell suspension was dispensed to a. plate containing a test compound at 100 μL per well and incubated at 37° C. in a 5% carbon dioxide gas incubator. 96 hours later, 80 μL of CellTiter-Glo (Promega) was added to each well and fluorescence was measured.
Turning to `CC[C@H](C)[C@@H]1NC(=O)[C@H](CC(F)(F)F)N(C)C(=O)C[C@@H](C(=O)N2CCCC2)N(C)C(=O)[C@H](C2CCCCC2)N(C)C(=O)C2(CCCC2)NC(=O)[C@@H]2CC(F)(F)CN2C(=O)[C@H](CCc2cc(F)c(C(F)(F)F)c(F)c2)NC(=O)CN(C)C(=O)[C@H](Cc2ccc(C)cc2)N(C)C(=O)CN(C)C(=O)CN(C)C1=O` [Compound 1317] ([NMeAbu(4,4,4-F3)]I[Sar][Sar][NMePhe(4-Me)][Sar][hPhe(3,5-F2-4-CF3)][Pro(4,4-F2)][Ac5c][NMeChg][NMeD]-Pyrrolidide; lactam N-11), the IC50 was at most 0.02 µM. The figure for `CCCC[C@@H]1NC(=O)[C@H](Cc2ccc(Cl)s2)NC(=O)CN(C)C(=O)[C@H](Cc2ccc(Cl)cc2)N(C)C(=O)CN(C)C(=O)CN(C)C(=O)[C@H]([C@@H](C)CC)NC(=O)[C@H](CC(C)C)N(C)C(=O)C[C@@H](C(=O)N2CCCCC2)N(C)C(=O)[C@H](CC(C)C)NC(=O)C(C)(C)N(C)C1=O` [Compound 1318] ([NMeL]I[Sar][Sar][NMePhe(4-Cl)][Sar][X79][Nle][NMeAib]L[NMeD]-Piperidide; lactam N-11) is over 0.5 µM. Turning to `CC[C@H](C)[C@@H]1NC(=O)[C@H](CC(C)C)N(CC)C(=O)C[C@@H](C(=O)N(C)C)N(C)C(=O)[C@H](C2CCCC2)N(C)C(=O)C2(CCCC2)NC(=O)[C@@H]2CCCN2C(=O)[C@H](CCc2ccc(C(F)(F)F)c(F)c2)NC(=O)CN(C)C(=O)[C@H](CC2CCCCC2)N(C)C(=O)[C@@H]2CCN2C(=O)[C@H](C)N(C)C1=O` [Compound 1324] ([NEtLeu]I[NMeA][Aze][NMeCha][Sar][hPhe(3-F,4-CF3)]P[Ac5c][NMeGly(cPent)][NMeD]-NMe2; lactam N-11), the IC50 is at most 0.02 µM.

As for `C#CC[C@@H]1NC(=O)[C@H](Cc2cccc(I)c2)NC(=O)CN(C)C(=O)[C@H](Cc2ccc(F)cc2)N(C)C(=O)CN(C)C(=O)CN(C)C(=O)[C@H]([C@@H](C)CC)NC(=O)[C@H](CC(C)C)N(C)C(=O)C[C@@H](C(=O)N2CCCCC2)N(C)C(=O)[C@H](CC(C)C)NC(=O)C(C)(C)N(C)C1=O` [Compound 1327] ([NMeL]I[Sar][Sar][NMePhe(4-F)][Sar][Phe(3-I)][Pra][NMeAib]L[NMeD]-Piperidide; lactam N-11), the IC50 is over 0.5 µM. For `CC[C@H](C)[C@@H]1NC(=O)[C@H](CC(C)C)N(C)C(=O)C[C@@H](C)NC(=O)[C@H](C2CCCC2)N(C)C(=O)C2(CCCC2)NC(=O)[C@@H](C)NC(=O)[C@H](CCc2ccc(C(F)(F)F)c(Cl)c2)NC(=O)CN(C)C(=O)[C@H](Cc2ccc(C)cc2)N(C)C(=O)[C@@H]2CCN2C(=O)[C@H](C)N(C)C1=O` [Compound 1328] (cyclo([Ac5c][NMeGly(cPent)][d(β3hA)][NMeL]I[NMeA][Aze][NMePhe(4-Me)][Sar][hPhe(3-Cl-4-CF3)][dA])) the value was over 0.5 µM. On to `CCO[C@@H]1C[C@H]2C(=O)NC3(CCCC3)C(=O)N(C)[C@@H]([C@@H](C)CC)C(=O)N(C)[C@H](C(=O)N3CCOCC3)CC(=O)N(C)[C@@H](CC(C)C)C(=O)N[C@@H]([C@@H](C)CC)C(=O)N(C)[C@@H](C)C(=O)N3CC[C@H]3C(=O)N(C)[C@@H](Cc3ccc(C(F)(F)F)cc3)C(=O)N(C)CC(=O)N[C@@H](CCc3ccc(C(F)(F)F)c(Cl)c3)C(=O)N2C1` [Compound 1330] ([NMeL]I[NMeA][Aze][NMePhe(4-CF3)][Sar][hPhe(3-Cl-4-CF3)][Hyp](Et)[Ac5c][NMeI][NMeD]-Morpholide; lactam N-11), for which the IC50 is at most 0.02 µM. For `CC[C@H](C)[C@@H]1NC(=O)[C@H](CC(C)C)N(C)C(=O)C[C@@H](C(=O)N2CCOCC2)N(C)C(=O)[C@H](C2CCCCC2)N(C)C(=O)C2(CCCC2)NC(=O)[C@@H]2CCCN2C(=O)[C@H](CCc2ccc(C(F)(F)F)c(Cl)c2)NC(=O)CN(C)C(=O)[C@H](CC2CCCCC2)N(C)C(=O)CN(C)C(=O)CN(C)C1=O` [Compound 1333] ([NMeL]I[Sar][Sar][NMeCha][Sar][hPhe(3-Cl-4-CF3)]P[Ac5c][NMeChg][NMeD]-Morpholide; lactam N-11) the value was at most 0.02 µM; for `CC[C@H](C)[C@@H]1NC(=O)[C@H](CC(C)C)N(C)C(=O)C[C@@H](C(=O)N2CCOCC2)N(C)C(=O)[C@H](C2CCCCC2)N(C)C(=O)C2(CCCC2)NC(=O)[C@@H]2CC(F)(F)CN2C(=O)[C@H](CCc2cc(F)c(C(F)(F)F)c(F)c2)NC(=O)CN(C)C(=O)[C@H](CC2CCCCC2)N(C)C(=O)CN(C)C(=O)CN(C)C1=O` [Compound 1337] ([NMeL]I[Sar][Sar][NMeCha][Sar][hPhe(3,5-F2-4-CF3)][Pro(4,4-F2)][Ac5c][NMeChg][NMeD]-Morpholide; lactam N-11), at most 0.02 µM. The figure for `CC[C@H](C)[C@@H]1NC(=O)[C@H](CC(C)C)N(C)C(=O)C[C@@H](C(=O)N2CCCC2)N(C)C(=O)[C@H](C2CCCC2)N(C)C(=O)C2(CCCC2)NC(=O)[C@@H]2CCCN2C(=O)[C@H](CCc2cc(F)c(C(F)(F)F)c(F)c2)NC(=O)CN(C)C(=O)[C@H](CC2CCCCC2)N(C)C(=O)CN(C)C(=O)CN(C)C1=O` [Compound 1342] ([NMeL]I[Sar][Sar][NMeCha][Sar][hPhe(3,5-F2-4-CF3)]P[Ac5c][NMeGly(cPent)][NMeD]-Pyrrolidide; lactam N-11) is at most 0.02 µM.

Values taken from US20240148821A1, “PHARMACEUTICAL USE OF CYCLIC PEPTIDE COMPOUND” (CHUGAI SEIYAKU KABUSHIKI KAISHA, priority 2021, published 2024).
